# Reference: patent US8080555B2, “Purine derivatives and their use for treatment of autoimmune diseases” (Prometic Biosciences Inc., priority 2005, dated 2011)
# Structures can show the parent of a compound that is named as a salt.
# Columns and labels:
# Fc portion of human IgG = target: T1, Fc portion of human IgG; assay: Competitive protein A binding ELISA (inhibition of binding of protein A to human IgG); conditions: HRP-human IgG, assay in PBS, read-out: IC50 (μM) Assay in PBS, concentration which inhibits 50% binding of protein A
# T1 construct: fused on or other part: Horseradish peroxidase chemically conjugated to the IgG (detection label)
# Experimental: As described above, this assay evaluates the ability of the exemplified compounds to mimic protein A. Such compounds can bind to the Fc portion of human IgG as ascertained by the inhibition of binding of protein A to human IgG. The competitive protein A binding ELISA assay was performed on a 96-well plate MAXISORP® surface to enhance the binding of protein A to the bottom of the plate. The wells were coated with 100 μL of protein A (0.8 μg) and incubated overnight at 4° C. After incubation, unbound protein A was removed by three washes with phosphate buffer saline (PBS). The plate was then incubated with 100 μL/well of a 2% solution of bovine serum albumin (BSA) for 1 h at 37° C. to block nonspecific protein binding. After incubation, the plate was washed three times with PBS. 50 μL of compound or protein A, diluted in PBS or PBS-20% DMSO at appropriate concentration, were added to the wells followed by addition of 50 μL of peroxidase-conjugated human IgG (HRP-IgG). After 1 h incubation at 37° C., the plate was washed three times with PBS to remove unbound HRP-IgG. Bound HRP-IgG was detected by incubation with 100 μL of 2,2′-azino-di[3-ethylbenzthiazoline sulfonate] diammonium salt crystals (ABTS) solution for 20 min in the dark at room temperature. The plate was then read at 405 nm on a BIO-TEK® EL 800 Universal Microplate Reader. Data was analyzed in a MICROSOFT® EXCEL® spreadsheet and the concentration of compound which inhibits 50% binding of protein A (IC50) was calculated using PRISM® software, as shown in Table 1.
# [1] = tested on: LPS-induced TNFα production in J774A-1 cells; assay: LPS-induced TNFα production in J774A-1 cells, TNFα by ELISA; assay type: cell-based; conditions: Mus musculus, J774.A1, 24 h, read-out: IC50 (μM), concentration which inhibits 50% of TNFα production
# Experimental: The effect of compounds on TNFα production was measured by ELISA using J774-1 cells stimulated by lipopolysaccharide (LPS). J774-1 cells were cultured in the presence or absence of LPS and compound. Cells were cultured at 37° C. for 24 h and thereafter the supernatants were collected for the determination of the concentration of TNFα by ELISA as recommended by the manufacturer (BD Biosciences). Data was analyzed in a MICROSOFT® EXCEL® spreadsheet and the concentration of compound which inhibits 50% of TNFα production (IC50) was calculated using PRISM® software, as shown in Table 2.
# [2] = tested on: oxazolone-induced delayed-type hypersensitivity (DTH); assay: Oxazolone-induced delayed-type hypersensitivity (DTH) in mice; assay type: in vivo; conditions: for Inflammation/Ear thickness (mm), Challenge 1 / Inflammation/Ear thickness (mm), Challenge 2: intravenous, 50 mg/kg day 0, 1 and 2; for Inflammation/Ear thickness (mm), Challenge 1: first challenge day 3; for Inflammation/Ear thickness (mm), Challenge 2: second challenge day 10
# Experimental: Compounds were tested for their ability to treat oxazolone-induced delayed-type hypersensitivity (DTH) in mice. On day 0, mice were sensitized with 100 μL of oxazolone in 5% acetone. On day 0, 1 and 2, mice were treated by intravenous administration of the vehicle (control) or methotrexate (MTX; positive control) or the compound at 50 mg/kg. Mice were challenged with an application of 50 μL of oxazolone on the surface of the right ear (first challenge, day 3; second challenge, day 10). Ear thickness was measured on day 4 to day 7, and on day 11 to 14. Redness and crust formation was also observed. Mice were sacrificed on day 14. TDTH (CD4) cells play an important role in regulating the intensity of the DTH response.
# The effect of oral administration of compound 1 was determined following the protocol described above with the exception that compound 1 was orally administered at 50 or 150 mg/kg from day 0 to day 13. The positive control was hydrocortisone.
# [3] = tested on: Freund's adjuvant-induced arthritis (AIA); assay: Freund's adjuvant-induced arthritis (AIA) in female Lewis rats; assay type: in vivo
# Experimental: AIA was induced in female Lewis rats by the injection of lyophilized Mycobacterium butyricum suspended in mineral oil into the footpad. The development of arthritis was monitored over a 3 week period post-adjuvant injection. Inflammation peaks at day 3 following the adjuvant administration. Immune activation appears around day 14. Compounds were injected i.v. day-3, -2 and -1 pre-adjuvant injection and at day 10, 11 and 12 post-adjuvant injection. Body weight was recorded. The arthritis index, which is a measure of inflammation (edema), redness, and stiffness of the articulations, was used to monitor the development of the disease. The degree of arthritis was determined by measuring two perpendicular diameters of the ankles in the mediolateral and dorsoventral planes using a caliper. Joint circumference in millimeters is then calculated using a geometric formula. Both the incidence and severity of the arthritis was evaluated. Incidence is defined as the number of rats with clinical evidence of joint inflammation during the study period.
# The effect of oral administration of compound 1 was determined following the protocol described above with the exception that compound 1 was orally administered at 50 mg/kg from day-3 to day 19. The positive control was indomethacin.
IC50 (Fc portion of human IgG),IC50 [1],SMILES,further results
13 µM,76 µM,"Nc1ccc(CCn2cnc3c(Nc4cccc(N)c4)nc(N)nc32)cc1 [Compound 2, N6-(3-Amino-phenyl)-9-[2-(4-amino-phenyl)-ethyl]-9H-purine-2,6-diamine]",–
0.7 µM,> 50 µM,"Nc1ccc(CCn2cnc3c(Nc4cccc(N)c4)nc(NCC4CC4)nc32)cc1 [Compound 3, N6-(3-Amino-phenyl)-9-[2-(4-amino-phenyl)-ethyl]-N2-cyclopropylmethyl-9H-purine-2,6-diamine]",–
4.8 µM,> 50 µM,"Nc1ccc(CCn2cnc3c(Nc4cccc(N)c4)nc(NCCCCCCO)nc32)cc1 [Compound 4, 6-{6-(3-Amino-phenylamino)-9-[2-(4-amino-phenyl)-ethyl]-9H-purin-2-ylamino}-hexan-1-ol]",–
13 µM,9.2 µM,"Nc1ccc(CCn2cnc3c(Nc4cccc(N)c4)nc(NC4CC4)nc32)cc1 [Compound 5, N6-(3-Amino-phenyl)-9-[2-(4-amino-phenyl)-ethyl]-N2-cyclopropyl-9H-purine-2,6-diamine]",–
1.8 µM,2.3 µM,"CC(C)(C)Nc1nc(Nc2cccc(N)c2)c2ncn(CCc3ccc(N)cc3)c2n1 [Compound 6, N6-(3-Amino-phenyl)-9-[2-(4-amino-phenyl)-ethyl]-N2-tert-butyl-9H-purine-2,6-diamine]",–
0.2 µM,> 100 µM,"Nc1ccc(Cn2cnc3c(Nc4cccc(N)c4)ncnc32)cc1 [Compound 7, N-[9-(4-Amino-benzyl)-9H-purin-6-yl]-benzene-1,3-diamine]",–
64 µM,11 µM,"Nc1ccc(CCn2cnc3c(Nc4cccc(N)c4)nc(NCCO)nc32)cc1 [Compound 8, 2-{6-(3-Amino-phenylamino)-9-[2-(4-amino-phenyl)-ethyl]-9H-purin-2-ylamino}-ethanol]",–
7.1 µM,> 50 µM,"Nc1cccc(Nc2nc(F)nc3c2ncn3CCc2ccc(OCc3ccccc3)cc2)c1 [Compound 9, N-{9-[2-(4-Benzyloxy-phenyl)-ethyl]-2-fluoro-9H-purin-6-yl}-benzene-1,3-diamine]",–
6 µM,5.3 µM,"CC(C)(C)CNc1nc(Nc2cccc(N)c2)c2ncn(CCc3ccc(N)cc3)c2n1 [Compound 10, N6-(3-Amino-phenyl)-9-[2-(4-amino-phenyl)-ethyl]-N2-(2,2-dimethyl-propyl)-9H-purine-2,6-diamine]",–
22 µM,11 µM,"CC(C)CNc1nc(Nc2cccc(N)c2)c2ncn(CCc3ccc(N)cc3)c2n1 [Compound 11, N6-(3-Amino-phenyl)-9-[2-(4-amino-phenyl)-ethyl]-N2-isobutyl-9H-purine-2,6-diamine]",–
52 µM,> 50 µM,"Nc1cccc(CCn2cnc3c(Nc4cccc(N)c4)ncnc32)c1 [Compound 12, N-{9-[2-(3-Amino-phenyl)-ethyl]-9H-purin-6-yl}-benzene-1,3-diamine]",–
0.2 µM,6.2 µM,"Nc1ccc(CCn2cnc3c(Nc4cccc(N)c4)nc(NC4CCCC4)nc32)cc1 [Compound 13, N6-(3-Amino-phenyl)-9-[2-(4-amino-phenyl)-ethyl]-N2-cyclopentyl-9H-purine-2,6-diamine]",–
0.6 µM,> 50 µM,"Nc1cccc(Nc2ncnc3c2ncn3CCc2ccc(F)cc2)c1 [Compound 14, N-{9-[2-(4-Fluoro-phenyl)-ethyl]-9H-purin-6-yl}-benzene-1,3-diamine]",–
–,–,"CN(Cc1cnc2nc(N)nc(N)c2n1)c1ccc(C(=O)N[C@@H](CCC(=O)O)C(=O)O)cc1 [Methotrexate, methotrexate, reference compound]","Inflammation/Ear thickness (mm), Challenge 1 [2]: 0.17 ± 0.04 mm; Inflammation/Ear thickness (mm), Challenge 2 [2]: 0.46 ± 0.17 mm; reduction in the severity of arthritis (inflammatory index) ([3]; intravenous injection, FIG. 2): 20%"
–,–,"COc1ccc2c(c1)c(CC(=O)O)c(C)n2C(=O)c1ccc(Cl)cc1 [indomethacin, reference compound]","reduction in the severity of arthritis (inflammatory index) ([3]; oral administration, FIG. 3): 10-40%"

SMILES,IC50 (Fc portion of human IgG),IC50 [1],further results
"Nc1ccc(CCn2cnc3c(Nc4cccc(N)c4)ncnc32)cc1 [Compound 1, N-{9-[2-(4-aminophenyl)ethyl]-9H-purin-6-yl}benzene-1,3-diamine dihydrochloride]",1 µM,> 100 µM,"potency compared to methotrexate in DTH ([2]; intravenous administration): equipotent to methotrexate; redness, crust formation, and ear swelling ([2]; intravenous administration): reduces; reduction of the inflammation as seen by lower ear thickness ([2]; intravenous administration): significant reduction; Inflammation/Ear thickness (mm), Challenge 1 [2]: 0.19 ± 0.06 mm; Inflammation/Ear thickness (mm), Challenge 2 [2]: 0.56 ± 0.12 mm; reduction of the inflammation as seen by lower ear thickness ([2]; oral, 50 or 150 mg/kg day 0 to day 13, challenges 1 and 2, FIG. 1): significant reduction; reduction in the severity of arthritis (inflammatory index) ([3]; intravenous injection, FIG. 2): up to 25%; reduction in the severity of arthritis (inflammatory index) ([3]; oral administration, FIG. 3): 10-30%"
